# Reference: patent US7557144B1, “Modulation of protein expression using carbocyclic aryl alkenoic acid derivatives” (The Johns Hopkins University, priority 2000, dated 2009)
# What was measured:
# calnexin = experiment: Calnexin immunoblot of IB3-1 lysates; format: cell-based, human; conditions: IB3-1 cells, increasing concentrations of 4-PBA
# Procedure: (§1) 3. Immunoblot analysis. Whole cell lysates were prepared by solubilization with 2% SDS at 95° C. Protein concentration in the lysates was determined using the Bio-Rad DC assay reagents with bovine plasma g-globulin as a standard (Bio-Rad Laboratories, Hercules, Calif.). Equal amounts of protein was resolved on 5, 7, 8, or 9% SDS-polyacrylamide gels. Proteins were transferred to nitrocellulose, and immunodetection was performed as previously described (25). Nonspecific binding was blocked by incubation of the nitrocellulose with 2% gelatin or 10% nonfat day milk. Primary antisera and secondary antibodies were applied in buffer containing 0.4% BSA overnight at 4° C. and for 1 h at room temperature, respectively. Detection of immunoreactivity was performed with the enhanced chemiluminescence reagent (ECL, Amer-sham) and fluorography. Recombinant bovine Hsc70 ([…]) was purchased from Stressgen Biotechnologies for use in constructing a standard curve of Hsc70 immunoreactivity. Immunoblots containing the bovine Hsc70 were probed with the Hsc70-specific polyclonal antiserum.
# Whether 4-PBA would regulate expression of a number of other molecular chaperones in IB3-1 cells (FIG. 2) was assessed next. […] Hsp90 is required for correct folding and function of a number of cellular proteins (16). […]
# Hsp90 = Hsp90 immunoblot of IB3-1 lysates; format: cell-based, human; conditions: IB3-1 cells, increasing concentrations of 4-PBA
# Procedure: as §1
# Whether 4-PBA would regulate expression of a number of other molecular chaperones in IB3-1 cells (FIG. 2) was assessed next. […] Hsp90 is required for correct folding and function of a number of cellular proteins (16). […] Hsp70 (Hsp72) expression is induced by heat shock and the presence of denatured proteins within the eukaryotic cell (16). In Escherichia coli, the Hsp70 homologue DnaK and the Hsp40 homologue DnaJ act to promote protein folding (16). Hdj2 is the member of the Hsp40 family that specifically interacts with and regulates the ATPase activity of Hsc70. Hdj2 also interacts with CFTR during CFTR translation (26).
# FIGS. 2A-2E are more specifically explained as follows. […]
# FIGS. 5A-C are explained in more detail as follows. […] Cellular homogenates were prepared in 2% SDS as described in METHODS, and 5 μg of total cellular protein were analyzed by immunoblot for Hsc70 using rabbit polyclonal antiserum, Hsp90, Hsp70, Hsp40 as described above under General Comments. […]
# [1] = system: CF airway epithelial cells; conditions: Rubenstein et al. 1997; cited from earlier work
# CFTR = conditions: homozygous ΔF508 patients taking the drug for 1 week; Rubenstein et al. 1998; cited from earlier work
# Hsc70 mRNA = experiment: RNase protection assay of Hsc70 mRNA in IB3-1 cells; format: cell-based, human
# Text: 4. RNase protection. An Hsc70-specific probe for RNase protec-tion was constructed by isolation a 500-bp EcoR I fragment from American Type Culture Collection (ATCC) plasmid 77659 (ATCC, Manassas, Va.) and ligating this fragment into the EcoR I site of pSK(2) (Bluescript, Stratagene, La Jolla, Calif.). The resulting plasmid was sequenced in the Genetics Core Facility at the Johns Hopkins Hospital and found to be identical to sequences in exons 8 and 9 of the human Hsc70 sequence, with sequencing using the T3 primer and T7 primer leading to sense and antisense sequence, respectively. Hybridization probes were synthesized using a Maxiscript T7 kit (Ambion, Austin, Tex.) and [α^32 P]UTP (Amersham or DuPont NEN, Boston, Mass.) according to the Maxiscript protocol. Templates for internal control hybridizations, pTRI-18S and pTRI-cyclophilin A, were purchased from Ambion, and probes were similarly synthesized using the Maxiscript T7 kit. Probes were isolated by acid phenol-chloroform (Ambion) extraction, separated from unincorporated nucleotide by gel filtration (Sephadex G25 RNAspin column, Boehringer-Mannheim), and ethanol-acetate precipitated before resuspension in hybridization buffer. The concentration of radioactivity in the synthesized probes was determined by liquid scintillation.
# RNase protection experiments were performed using the Direct Protect RNase protection assay kit (Ambion) according to the manufacturer's protocol. IB3-1 cell lysates were pre-pared in Direct Protect lysis buffer according to the manufacturer's protocol after incubation under the appropriate conditions for 48 h. Probe (50-70 and 5-10 thousands of counts/min for Hsc70 and control, respectively) and cellular RNA were hybridized overnight at 37° C. and digested with RNase cocktail. Protected fragments were resolved by electrophoresis on 5% acrylamide-8 M urea gels and detected by fluorography. Hsc70 mRNA concentration is expressed relative to control (18S or cyclophilin A) hybridization by densitometry (see Densitometric analysis). Results for hybridization of Hsc70 mRNA relative to the two control species were similar and were therefore grouped for data analysis.
# FIGS. 3A-B are explained in more detailed as follows. Dose-dependent downregulation of Hsc70 mRNA expression by 4-PBA. A: IB3-1 cells were treated as for FIGS. 1 and 2. Hsc70 mRNA and 18S rRNA (as an internal reference) were measured by Direct Protect RNase protection as described under General Comments. […] P values (shown above respective error bars) were determined by 1-way ANOVA in comparison with control.
# FIG. 6 is explained in more detail as follows. […] P values (shown above respective error bars) were determined by 1-way ANOVA in comparison with control.
compound,measurement,setting,value
"O=C(O)CCCc1ccccc1 [4-PBA, 4-phenylbutyric acid]",expression of calnexin,calnexin,did not affect
same,expression of Hsp90,Hsp90,did not affect
same,cAMP-mediated chloride transport,[1],promote functional correction of cAMP-medicated chloride transport
same,chloride transport in nasal potential difference measurements,CFTR,increase chloride transport
same,steady-state Hsc70 mRNA levels,"Hsc70 mRNA; 4-PBA treatment, relative to 18S rRNA",concentration-dependent decrease
same,"maximum decrease of Hsc70 mRNA, of control expression",Hsc70 mRNA; continuous exposure to 5 mM 4-PBA,~50%
